The supplement of paper PMC11061612

Key:
[1] = system: 23132-87 (Gastric Carcinoma); test: Bliss excess, mean over the matrix (fraction); higher = more synergy
Outline: (§1)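 Cell lines grown in DMEM/F12 or RPMI with 10% FBS were plated in 1536-well plates and held 24 hours at 37°C, 5% CO2 before 72 hours of exposure to two-drug dose matrices, with DMSO typically at 0.2%. CellTiter-Glo 2.0 luminescence gave viability, which was converted to inhibition. Vehicle wells were set to 0 and blank wells to 1. Combination Emax is the second-highest inhibition in the matrix, and Bliss excess is the observed combination effect minus the expected EA + EB − EA·EB, where EA and EB are the single-agent effects.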

A2058 (Melanoma) [2] = test: as above
Outline: as §1

[3] = system: CAL-120 (Breast Carcinoma); test: as above
Outline: as §1

[4] = system: FADU (Head and Neck Carcinoma); test: as above
Outline: as §1

GB-1 (Glioblastoma) [5] = test: as above
Outline: as §1

[6] = system: GP5d (Colorectal Carcinoma); test: as above
Outline: as §1

[7] = system: HCT-15 (Colorectal Carcinoma); test: as above
Outline: as §1

[8] = system: HEC-1 (Endometrial Carcinoma); test: as above
Outline: as §1

[9] = system: KE-37 (T-Lymphoblastic Leukemia); test: as above
Outline: as §1

[10] = system: LB996-RCC (Kidney Carcinoma); test: as above
Outline: as §1

LN-229 (Glioblastoma) [11] = test: as above
Outline: as §1

[12] = system: LXF-289 (Lung Adenocarcinoma); test: as above
Outline: as §1

[13] = system: NCI-H23 (Lung Adenocarcinoma); test: as above
Outline: as §1

[14] = system: NCI-H446 (Small Cell Lung Carcinoma); test: as above
Outline: as §1

[15] = system: OAW-42 (Ovarian Carcinoma); test: as above
Outline: as §1

[16] = system: RERF-GC-1B (Gastric Carcinoma); test: as above
Outline: as §1

[17] = system: RERF-LC-Sq1 (Squamous Cell Lung Carcinoma); test: as above
Outline: as §1

SF268 (Low Grade Glioma) [18] = test: as above
Outline: as §1

[19] = system: SU-DHL-10 (B-Cell Non-Hodgkin's Lymphoma); test: as above
Outline: as §1

WM278 (Melanoma) [20] = test: as above
Outline: as §1

WM793B (Melanoma) [21] = test: as above
Outline: as §1

[22] = system: 23132-87 (Gastric Carcinoma); test: combination Emax (second highest fraction inhibited in the dose matrix, 72 h); higher = more inhibition; extreme values may be limits of the assay
Outline: as §1

A2058 (Melanoma) [23] = test: as above
Outline: as §1

[24] = system: CAL-120 (Breast Carcinoma); test: as above
Outline: as §1

[25] = system: FADU (Head and Neck Carcinoma); test: as above
Outline: as §1

GB-1 (Glioblastoma) [26] = test: as above
Outline: as §1

[27] = system: GP5d (Colorectal Carcinoma); test: as above
Outline: as §1

[28] = system: HCT-15 (Colorectal Carcinoma); test: as above
Outline: as §1

[29] = system: HEC-1 (Endometrial Carcinoma); test: as above
Outline: as §1

[30] = system: KE-37 (T-Lymphoblastic Leukemia); test: as above
Outline: as §1

[31] = system: LB996-RCC (Kidney Carcinoma); test: as above
Outline: as §1

LN-229 (Glioblastoma) [32] = test: as above
Outline: as §1

[33] = system: LXF-289 (Lung Adenocarcinoma); test: as above
Outline: as §1

[34] = system: NCI-H23 (Lung Adenocarcinoma); test: as above
Outline: as §1

[35] = system: NCI-H446 (Small Cell Lung Carcinoma); test: as above
Outline: as §1

[36] = system: OAW-42 (Ovarian Carcinoma); test: as above
Outline: as §1

[37] = system: RERF-GC-1B (Gastric Carcinoma); test: as above
Outline: as §1

[38] = system: RERF-LC-Sq1 (Squamous Cell Lung Carcinoma); test: as above
Outline: as §1

SF268 (Low Grade Glioma) [39] = test: as above
Outline: as §1

[40] = system: SU-DHL-10 (B-Cell Non-Hodgkin's Lymphoma); test: as above
Outline: as §1

WM278 (Melanoma) [41] = test: as above
Outline: as §1

WM793B (Melanoma) [42] = test: as above
Outline: as §1
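Wherever Bliss excess, mean over the matrix is given: after 72 h of two-drug dosing.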

C[C@@H](c1ccc2nccn2c1)n1nnc2ncc(-c3cnn(C)c3)nc21 [Savolitinib] + CN(CC[C@H](CSC1=CC=CC=C1)NC2=C(C=C(C=C2)S(=O)(=O)NC(=O)C3=CC=C(C=C3)N4CCC(CC4)[C@H](C5=CC=CC=C5C6=CC=C(C=C6)Cl)O)S(=O)(=O)C(F)(F)F)CCO [AZD4320] (first compound max 1 µM, 7x7, partner max 1 µM)
Bliss excess [1]: -0.0618
Bliss excess (A2058 (Melanoma) [2]): 0.0035
Bliss excess [3]: -0.0325
Bliss excess [4]: -0.0378
Bliss excess (GB-1 (Glioblastoma) [5]): -0.0653
Bliss excess [6]: -0.0339
Bliss excess [7]: -0.0274
Bliss excess [8]: -0.027
Bliss excess [9]: -0.0327
Bliss excess [10]: -0.0392
Bliss excess (LN-229 (Glioblastoma) [11]): -0.0833
Bliss excess [12]: -0.0203
Bliss excess [13]: 0.0248
Bliss excess [14]: 0.112
Bliss excess [15]: -0.0451
Bliss excess [16]: -0.0404
Bliss excess [17]: -0.0075
Bliss excess (SF268 (Low Grade Glioma) [18]): -0.0491
Bliss excess [19]: -0.0067
Bliss excess (WM278 (Melanoma) [20]): -0.0406
Bliss excess (WM793B (Melanoma) [21]): -0.0644
combination Emax [22]: 0.338
combination Emax (A2058 (Melanoma) [23]): 0.192
combination Emax [24]: 0.65
combination Emax [25]: 0.221
combination Emax (GB-1 (Glioblastoma) [26]): 0.15
combination Emax [27]: 0.29
combination Emax [28]: 0.132
combination Emax [29]: 0.423
combination Emax [30]: 1
combination Emax [31]: 0.19
combination Emax (LN-229 (Glioblastoma) [32]): 0.187
combination Emax [33]: 0.188
combination Emax [34]: 0.316
combination Emax [35]: 0.694
combination Emax [36]: 0.275
combination Emax [37]: 0.367
combination Emax [38]: 0.238
combination Emax (SF268 (Low Grade Glioma) [39]): 0.172
combination Emax [40]: 0.0854
combination Emax (WM278 (Melanoma) [41]): 0.55
combination Emax (WM793B (Melanoma) [42]): 0.137
